# According to patent publication EP4119948A1, “METHOD FOR STRATIFICATION AND TREATMENT OF MULTIPLE SCLEROSIS” (Universität Zürich, priority 2021, dated 2023):
# How the values were obtained:
# [1] = tested on: CSF-infiltrating CD4+ T cells; assay: IFN-γ release (ELISA) of PHA-expanded CSF-infiltrating CD4+ T cells stimulated with peptides presented by autologous PBMCs; type: cell-based, human; settings: peptide 10 µM, 105 MS patients
# Procedure: (§1) PBMCs were freshly isolated using Ficoll (Eurobio, Germany) density gradient centrifugation. CSF-infiltrating CD4^+ T cells were expanded with PHA in a single round of stimulation using a previously reported protocol aimed to reduce TCR repertoire bias (Planas et al., […], Sci Transl Med, 10(462):eaat4301). 6 × 10^4 PHA-expanded CSF-infiltrating CD4^+ T cells were seeded in quadruplicate with 2 × 10^5 irradiated autologous PBMCs as antigen presenting cells and stimulated with peptides (Table 2) at a final concentration of 10 µM and with a T Cell Activation Kit (anti-CD3, anti-CD28, anti-CD2 beads) (Miltenyi Biotec) as positive control. Table 2. GDP-L-FS, myelin and CEF Peptides (amino acid sequences)
# Release of IFN-γ was measured using the ELISA MAX™ Deluxe Set Human IFN-γ (Biolegend, San Diego, CA, USA) according to the manufacturer's instructions. A well was considered positive if IFN-γ ≥20 pg/ml and a patient was considered positive for a peptide if the mean IFN-γ of the four wells was ≥ 20 pg/ml and at least 3 of the 4 wells were positive.
# [2] = tested on: CSF-infiltrating CD4+ T cells; assay: Proliferative response (3H-thymidine, stimulation index) of PHA-expanded CSF-infiltrating CD4+ T cells to peptides presented by autologous PBMCs; type: cell-based, human; settings: peptide 10 µM, 72 h, 105 MS patients
# Procedure: as §1
# Proliferation was measured 72 h after stimulation using 3H-thymidine (Hartmann Analytic, Braunschweig, Germany) as previously reported (Planas et al., 2018). The stimulation index of single wells (SI) was calculated as follows: SI = (cpm well with peptide) / (Mean cpm wells without peptide). A well was considered positive if SI ≥2.
substance,measurement,setting,value
"MBP 83-99 (ENPVVHFFKNIVTPRT; listed as Homo sapiens) [MBP (83-99), myelin peptide …]",Positive wells % IFNγ release,"[1]; well positive if IFN-γ ≥20 pg/ml, quadruplicates (420 wells per peptide)",6.28%
same,Positive patients % IFNγ release,[1]; patient positive if mean IFN-γ of four wells ≥20 pg/ml and at least 3 of 4 wells positive,5.71%
same,Positive wells % Proliferation,"[2]; well positive if SI ≥2, quadruplicates (420 wells per peptide)",1.92%
same,Positive patients % Proliferation,[2]; patient positive if mean SI of four wells ≥2 and at least 3 of four wells SI ≥2,0.96%
